# Reference: patent US20260191968A1, “PROTAC DEGRADERS OF MLLT1 AND/OR MLLT3” (DARK BLUE THERAPEUTICS LTD, priority 2024, published 2026)
# Key:
# MLLT1 = target: T1, MLLT1 (Mus musculus, UniProt F6UGX7); experiment: MLLT1 degradation assay in NIH/3T3 cells (JESS), dose response, 5 h; assay type: cell-based
# T1 construct: host or cells: NIH/3T3
# T1 sequence (F6UGX7 1-547): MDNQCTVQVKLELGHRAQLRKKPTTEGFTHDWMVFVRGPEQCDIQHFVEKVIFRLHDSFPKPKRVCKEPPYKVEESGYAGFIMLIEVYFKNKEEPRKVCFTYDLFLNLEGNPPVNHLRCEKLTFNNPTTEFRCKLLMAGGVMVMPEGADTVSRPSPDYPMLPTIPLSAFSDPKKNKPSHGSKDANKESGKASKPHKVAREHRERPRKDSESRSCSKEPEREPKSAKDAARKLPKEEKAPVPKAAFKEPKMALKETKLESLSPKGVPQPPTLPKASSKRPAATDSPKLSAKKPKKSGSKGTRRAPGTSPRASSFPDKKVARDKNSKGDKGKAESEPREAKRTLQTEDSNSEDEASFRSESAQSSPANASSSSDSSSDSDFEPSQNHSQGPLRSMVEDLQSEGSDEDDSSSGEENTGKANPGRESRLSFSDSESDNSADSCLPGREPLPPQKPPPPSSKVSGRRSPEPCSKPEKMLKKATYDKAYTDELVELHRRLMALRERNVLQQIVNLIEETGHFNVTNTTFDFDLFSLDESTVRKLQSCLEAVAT
# Method: MLLT1 degradation efficacy of compounds was tested in an automated chemiluminescent detection system (JESS, Cat #004-650). NIH/3T3 (#CRL-1658, ATCC) were seeded at a density of 0.5 million cells/well in a cell culture treated 6-well cell culture plate in 2 mL of complete medium (DMEM+10% FBS+1X Penicillin-Streptomycin) and incubated at 37° C., 5% CO2. The next day, 10 mM DMSO stocks were prepared, and cells were treated with eight concentrations of test compound, starting from 100 nM, 5-fold dilution, at a final DMSO concentration of 0.1% and incubated for 5 h at 37° C., 5% CO2. Post incubation, cells were washed with HBSS and lysed in 70 μL of RIPA buffer supplemented with Protease inhibitors (sc-24948; Santa Cruz). Protein estimation was done using BCA protein assay kit (23228; Pierce). […] Post run, data was analysed using “Compass for SW” software for chemiluminescent detection. […]
# MLLT3 degradation efficacy of compounds was tested in an automated chemiluminescent detection system (JESS, Cat #004-650). […] Post run, data was analysed using “Compass for SW” software for chemiluminescent detection. […]
# human AML = experiment: in vivo mouse model of human AML (tumour growth); conditions: oral administration, procedure of Example 236, FIG. 1
# MV4-11 cells = experiment: MV4-11 cellular proliferative assay, Assay Format A (CellTiter-Glo, 120 hours); assay type: cell-based; conditions: Homo sapiens
# How it was run: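 Over 120 h, MV4-11 cells seeded at 50 cells/well in IMDM/10% FBS were exposed to compound (10 semi-log dilutions, 30 μM top). Viability was read by CellTiter-Glo luminescence. Signals were normalised to DMSO and reference-compound wells, and AC50 came from a Hill fit.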
smiles,measurement,setting,value
"CN1CCC[C@@H]1c1cc2cnc(NC(=O)c3ccc(CCCC#Cc4cccc5c4CN(C4CCC(=O)NC4=O)C5=O)cc3)cc2[nH]1 (stereo partly drawn) [Example 55, 4-(5-(2-(2,6-dioxopiperidin-3-yl)-1-oxoisoindolin-4-yl)pent-4-yn-1-yl)-N-(2-((R)-1-methylpyrrolidin-2-yl)-1H-pyrrolo[3,2-c]pyridin-6-yl)benzamide]",Dmax,"MLLT1; NIH3T3, read-out: MLLT1 Dmax in NIH/3T3 cells",96%
same,DC50,"MLLT1; NIH/3T3 cells, 5 h",1.2 nM
same,tumour growth,human AML,reduction in tumour growth
same,IC50,MV4-11 cells,≤ 100 nM
